Patent US12617787B2, “Merged scaffold TAF1 inhibitors” (H. LEE MOFFITT CANCER CENTER AND RESEARCH INSTITUTE, INC., priority 2020, dated 2026)
“Also recorded” adds a separate entry of the source.

What was measured:
purified FLAG-ATR = target: T1, purified FLAG-ATR (Homo sapiens, UniProt Q13535); test: ELISA-based kinase activity: phosphorylation of p53 S15 by purified FLAG-ATR in vitro; format: biochemical; details: FIG. 3
T1 construct: FLAG
Text: ELISA-based kinase activity was used to test the ability of compounds to inhibit phosphorylation of p53 S15 by purified FLAG-ATR in vitro.

TAF1-2 = target: T2, TAF1-2 (Homo sapiens, UniProt P21675); test: DSF for TAFi with TAF1-2; format: binding; details: protein TAF1-2, DMSO = 0
T2 construct: a tandem bromodomain (BD1 and BD2)
T2 sequence (P21675 1519-1628 limits assumed): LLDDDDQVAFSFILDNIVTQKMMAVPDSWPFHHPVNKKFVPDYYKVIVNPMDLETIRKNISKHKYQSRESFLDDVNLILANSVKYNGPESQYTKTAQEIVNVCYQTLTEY

[1] = test system: HCT116 cells with and without p53; test: Western blot of marker expression (p21) in HCT116 cells with and without p53; format: cell-based; details: HCT116 cells with and without p53, treated 30 hrs, FIG. 4
Experimental: HCT116 cells with and without p53 were treated with compounds for 30 hrs. Expression levels of indicated markers were determined by western blot.

T1 sequence (Q13535 whole entry): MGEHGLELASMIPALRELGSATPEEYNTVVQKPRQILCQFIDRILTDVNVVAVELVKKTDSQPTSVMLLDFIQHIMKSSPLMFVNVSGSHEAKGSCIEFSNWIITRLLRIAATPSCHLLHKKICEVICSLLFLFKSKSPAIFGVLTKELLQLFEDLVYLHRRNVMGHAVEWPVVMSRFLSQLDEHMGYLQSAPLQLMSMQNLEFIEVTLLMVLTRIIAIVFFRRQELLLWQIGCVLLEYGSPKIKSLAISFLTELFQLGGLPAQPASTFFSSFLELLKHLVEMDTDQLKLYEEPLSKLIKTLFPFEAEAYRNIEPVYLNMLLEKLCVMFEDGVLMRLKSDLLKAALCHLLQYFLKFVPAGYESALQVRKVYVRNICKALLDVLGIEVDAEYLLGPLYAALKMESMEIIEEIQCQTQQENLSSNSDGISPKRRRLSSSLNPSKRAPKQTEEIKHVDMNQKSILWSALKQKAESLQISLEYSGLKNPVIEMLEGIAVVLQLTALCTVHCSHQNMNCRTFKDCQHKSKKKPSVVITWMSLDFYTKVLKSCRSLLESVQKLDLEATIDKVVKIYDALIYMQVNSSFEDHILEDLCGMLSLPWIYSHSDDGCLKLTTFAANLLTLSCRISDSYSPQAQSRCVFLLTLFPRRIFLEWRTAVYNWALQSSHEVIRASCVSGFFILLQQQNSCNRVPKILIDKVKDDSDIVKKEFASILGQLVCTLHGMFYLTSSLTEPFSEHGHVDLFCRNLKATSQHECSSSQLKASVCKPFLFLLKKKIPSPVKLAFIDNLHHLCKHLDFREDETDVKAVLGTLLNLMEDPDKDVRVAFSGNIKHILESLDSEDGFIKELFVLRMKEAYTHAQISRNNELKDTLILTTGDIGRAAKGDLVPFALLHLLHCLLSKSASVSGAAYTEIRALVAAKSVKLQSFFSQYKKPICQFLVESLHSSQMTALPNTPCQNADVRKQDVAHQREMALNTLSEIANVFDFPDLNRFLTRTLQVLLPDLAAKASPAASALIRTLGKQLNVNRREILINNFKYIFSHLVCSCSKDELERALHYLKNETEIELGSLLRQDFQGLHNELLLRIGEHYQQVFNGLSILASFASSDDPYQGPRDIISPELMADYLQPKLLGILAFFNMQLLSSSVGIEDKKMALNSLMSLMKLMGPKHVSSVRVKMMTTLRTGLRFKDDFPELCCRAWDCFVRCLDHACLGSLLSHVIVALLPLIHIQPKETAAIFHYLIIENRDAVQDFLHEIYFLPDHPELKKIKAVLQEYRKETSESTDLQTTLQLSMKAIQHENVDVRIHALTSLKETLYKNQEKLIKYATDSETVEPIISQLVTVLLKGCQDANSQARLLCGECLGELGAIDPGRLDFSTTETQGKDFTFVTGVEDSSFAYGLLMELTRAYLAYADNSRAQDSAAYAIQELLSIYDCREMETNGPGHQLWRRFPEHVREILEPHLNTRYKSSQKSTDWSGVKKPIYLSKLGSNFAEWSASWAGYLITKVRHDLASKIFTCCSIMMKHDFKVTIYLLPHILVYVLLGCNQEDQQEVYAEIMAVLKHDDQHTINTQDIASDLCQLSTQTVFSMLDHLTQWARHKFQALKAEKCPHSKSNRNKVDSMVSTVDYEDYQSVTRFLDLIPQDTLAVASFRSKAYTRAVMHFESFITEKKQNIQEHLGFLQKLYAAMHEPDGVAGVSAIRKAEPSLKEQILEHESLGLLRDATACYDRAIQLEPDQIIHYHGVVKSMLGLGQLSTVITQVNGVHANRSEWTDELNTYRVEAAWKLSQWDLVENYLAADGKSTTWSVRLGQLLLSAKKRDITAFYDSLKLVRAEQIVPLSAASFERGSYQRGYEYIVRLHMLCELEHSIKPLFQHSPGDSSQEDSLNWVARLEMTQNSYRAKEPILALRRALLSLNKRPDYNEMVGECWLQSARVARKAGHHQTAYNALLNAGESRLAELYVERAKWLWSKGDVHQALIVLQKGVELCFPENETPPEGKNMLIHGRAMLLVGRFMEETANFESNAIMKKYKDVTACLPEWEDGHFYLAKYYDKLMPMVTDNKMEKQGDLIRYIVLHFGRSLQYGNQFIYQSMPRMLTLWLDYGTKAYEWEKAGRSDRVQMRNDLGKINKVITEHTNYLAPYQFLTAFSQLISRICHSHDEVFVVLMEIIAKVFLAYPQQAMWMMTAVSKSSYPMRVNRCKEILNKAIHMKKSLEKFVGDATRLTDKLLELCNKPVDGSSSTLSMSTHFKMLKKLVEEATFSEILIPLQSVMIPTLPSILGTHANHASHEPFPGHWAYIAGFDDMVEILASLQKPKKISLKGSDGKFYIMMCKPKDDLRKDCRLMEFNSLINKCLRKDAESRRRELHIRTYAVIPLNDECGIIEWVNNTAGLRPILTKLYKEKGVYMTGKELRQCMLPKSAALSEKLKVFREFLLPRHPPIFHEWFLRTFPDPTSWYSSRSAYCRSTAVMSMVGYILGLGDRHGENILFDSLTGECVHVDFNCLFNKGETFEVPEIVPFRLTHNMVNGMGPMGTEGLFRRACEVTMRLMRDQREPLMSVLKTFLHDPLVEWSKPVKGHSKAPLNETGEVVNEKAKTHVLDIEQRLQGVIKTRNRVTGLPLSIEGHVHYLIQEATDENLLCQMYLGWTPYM

ATm + SEM (° C.) (TAF1-2) [°C]	SMILES	inhibition of ATR (phosphorylation of p53 S15) (purified FLAG-ATR)	p53-mediated p21 expression [1]
	C=CCCn1cc(-c2cc(C(=O)N3CCOCC3)cc3c2ncn3C)c2cc[nH]c2c1=O [GNE-371, reference compound]	absence of inhibition	
3.4 ± 0.1	C[C@@H]1COCCN1c1cc(C2([S@](C)(=N)=O)CC2)nc(-c2cc[nH]c3nccc2-3)n1 [AZD6738]		
	C=CCCn1cc(-c2cc(C3([S@](C)(=N)=O)CC3)nc(-c3ccnc4[nH]ccc34)n2)c2cc[nH]c2c1=O [ZS1-681]	does not inhibit ATR; also recorded: absence of inhibition	induces p53-mediated p21 expression
